Legend:
[1] = tested on: purified guinea pig anti-a,DNP-Lys7-10 antibody; conditions: as measured by binding of DNP-OH or DNP-EACA; fluorescence quenching
[2] = tested on: purified anti-8,e,DNP-Lys8 antibody; type: binding, guinea pig; conditions: cross-reaction of anti-8,ε,DNP-Lys8 antibody with α,DNP-oligolysines

Row | SMILES | contribution of the haptenic group to the total binding energy of a,DNP-Lys9 [1] | contribution to the binding energy of α,DNP-oligolysines [2] [%]
1 | O=C(O)CCCCCNc1ccc([N+](=O)[O-])cc1[N+](=O)[O-] [DNP-EACA] | about 70% | 
2 | O=[N+]([O-])c1ccc(O)c([N+](=O)[O-])c1 [DNP-OH, 2,4,dinitrophenol] | about 70% | 93

From paper PMC2138933 (The Journal of Experimental Medicine, 1971)
